# Assay results published in patent US10906977B2, “Enhancing the therapeutic activity of immune checkpoint inhibitor” (Maine Medical Center Research Institute, priority 2016, dated 2021).
# Key:
# [1] = test system: fibroblasts; experiment: Growth factor-induced fibroblast migration on denatured collagen; assay type: cell-based, human; details: FGF-2 20 ng/ml; FIG. 22B, 22E, 24D
# Method: Transwell membranes (8.0 um pore size) were coated with 5 μg/ml of native or denatured collagen for 12 hrs at […] as described previously (13). Migration buffer containing RPMI 1640, 1 mM MgCl2, 0.2 mM MnCl2 and 0.5% BSA in the presence or absence of 5× concentrated serum free SKOV-3 CM or 20 ng/ml FGF-2 was placed in the lower chambers. SKOV-3 or fibroblasts (1×105) were resuspended in migration buffer containing RPMI 1640, 1 mM MgCl2, 0.2 mM MnCl2 and 0.5% BSA in the presence or absence of antibodies directed to the HU177 epitope, or α10β1, (10 μg/ml) or 100 uM of the MEK inhibitor ([…]). Cells were added to the top chamber and allowed to migrate from 2 to 4 hrs. Cells remaining on the top of the membranes were removed and cells that had migrated to the underside of the membrane were quantified by direct cell counts of crystal violet stained cells or by measuring the optical density of eluted cell-associated crystal violet dye as previously described (15). Assays were completed at least 3×.
# [2] = test system: chick chorioallantoic membrane (CAM); experiment: Chick CAM angiogenesis induced by soluble RGD collagen peptides; assay type: in vivo; details: soluble peptide; FIG. 5C
# Method: (§1) The chick chorioallantoic membrane (CAM) assays were carried out with some modifications (19). For all experiments CAMs of 10-day-old chick embryos obtained from Charles River (North Franklin, Conn.) were separated from the shell membrane. Filter discs either non-treated (inflammation assays) pretreated (angiogenesis assays) with cortisone acetate (3.0 mg/ml) containing RPMI only or FGF-2 (40 ng). CAMs were either non-treated or treated topically with Mab XL313, XL166 or a non-specific control antibody (10 μg/embryo every 24 h for three consecutive treatments). […] At the end of the incubation period the embryos were sacrificed and the CAM tissues were analyzed. Angiogenesis was quantified by counting the number of angiogenic branching blood vessels within the area of the filter disc. The angiogenic index was determined by subtracting the mean number of blood vessel branch points from untreated CAMs from each experimental condition. Eight to twelve embryos were used per condition and experiments were repeated at least three times.
# [3] = test system: chick chorioallantoic membrane (CAM); experiment: Chick CAM inflammation induced by soluble RGD collagen peptides; assay type: in vivo; details: FIG. 5D
# Method: as §1
# [4] = test system: human dermal fibroblasts; experiment: Cell adhesion to immobilized collagen RGD peptides; assay type: cell-based; details: peptide immobilized 100 μg/ml
# Method: (§2) RGD peptides (P-1, P-2, P-3, P-4, P-5, and P-C) were immobilized (100 μg/ml) to wells. HUVEC, HMVEC, HRMVEC, and HDF cells were suspended in adhesion buffer (RPMI containing 1 mM MgCl2, 0.2 mM MnCl2 and 0.5% BSA) and 1×10^5 cells were seeded into the wells in the presence or absence of P4C10, LM609, P1F6 or control antibodies (100 μg/ml). Cells were allowed to attach for 25 min at 37° C. Media containing non-attached cells was aspirated and attached cells were washed with PBS and stained with crystal violet. Cell adhesion was quantified by measuring the optical density of eluted dye. Adhesion assays were completed at least three times with triplicate wells.
# [5] = test system: human retinal microvascular endothelial cells (HRMVEC); experiment: Cell adhesion to immobilized collagen RGD peptides; assay type: cell-based; details: peptide immobilized 100 μg/ml
# Method: as §2
# [6] = test system: human microvascular endothelial cells (HMVEC); experiment: Cell adhesion to immobilized collagen RGD peptides; assay type: cell-based; details: peptide immobilized 100 μg/ml
# Method: as §2
# [7] = test system: human umbilical vein endothelial cell (HUVEC); experiment: Cell adhesion to immobilized collagen RGD peptides; assay type: cell-based; details: peptide immobilized 100 μg/ml; FIG. 1A
# Method: as §2
# [8] = test system: chick chorioallantoic membrane (CAM); experiment: Chick CAM inflammation assay, FGF-2 induced, no cortisone acetate; assay type: in vivo
# Method: The chick chorioallantoic membrane (CAM) assays were carried out with some modifications (19). For all experiments CAMs of 10-day-old chick embryos obtained from Charles River (North Franklin, Conn.) were separated from the shell membrane. Filter discs either non-treated (inflammation assays) pretreated (angiogenesis assays) with cortisone acetate (3.0 mg/ml) containing RPMI only or FGF-2 (40 ng). CAMs were either non-treated or treated topically with Mab XL313, XL166 or a non-specific control antibody (10 μg/embryo every 24 h for three consecutive treatments). For peptide induction experiments, CAMs were stimulated with 100 ng/ml of the RGD peptides (P-1, P-2, P-C) in the presence or absence of the P38MAPK inhibitor, SB202190 (10 μM). At the end of the incubation period the embryos were sacrificed and the CAM tissues were analyzed. Angiogenesis was quantified by counting the number of angiogenic branching blood vessels within the area of the filter disc. The angiogenic index was determined by subtracting the mean number of blood vessel branch points from untreated CAMs from each experimental condition. Eight to twelve embryos were used per condition and experiments were repeated at least three times.
# CAMs examined for accumulation of granulation tissue were harvested, fixed in 4% PFA and paraffin embedded and sectioned (4 μm) and stained with Giemsa. CAM tissues analyzed via immunofluorescence were harvested, embedded with OCT, snap frozen and sectioned ([…]). Frozen sections were fixed in 50% methanol/50% acetone, air dried and blocked with 2.5% BSA for 1 h at 37° C. For expression of the XL313 and XL166 epitopes as well as monocyte/macrophages, FGF-2 stimulated CAM tissues were stained with Mabs XL313, XL166 (50 μg/ml) or KUL1 (1:250) and then incubated with Alexa-488 labeled secondary antibodies (1:2000 dilution). […] Using a similar strategy, sections of RGD peptide-treated CAM tissues were analyzed for phosphorylated-P38MAPK in angiogenic vessels by co-incubation of anti-phospho-P38MAPK (1:50) and anti-vWf (1:500) antibodies. […]
# [9] = test system: XL313 epitope; experiment: Circulating Mab XL313 reactive epitope in chick embryo serum (solid-phase ELISA); assay type: in vivo; details: serum collected three days after FGF-2 stimulation; FIG. 5A
# Description: FIG. 5A-FIG. 5D are bar graphs depicting the induction of angiogenesis and inflammation in vivo by soluble RGDKGE (SEQ ID NO: 1) but not a related RGDAPG (SEQ ID NO: 11) containing collagen epitope. FIG. 5A is a bar graph depicting serum from chick embryos in which the CAMs had been either not stimulated (NT) or stimulated with FGF-2 was collected. Relative levels of circulating Mab XL313 reactive epitope were quantified by solid-phase ELISA. Data represent mean Mab XL313 reactivity±S.E (N=12 to 13). FIG. 5B is a bar graph depicting quantification of dose dependent induction of angiogenesis by RGDKGE (SEQ ID NO: 1) containing collagen peptide P-2. […] FIG. 5C is a bar graph depicting quantification of CAM angiogenesis associated with RGD containing collagen peptides P-1 (KGDRGDAPG; SEQ ID NO: 2), P-2 (QGPRGDKGE; SEQ ID NO: 3) or control peptide P-C (QGPSGSPGE; SEQ ID NO: 4). […] FIG. 5D is a bar graph depicting the quantification of CAM inflammation associated with RGD containing collagen peptides P-1 (KGDRGDAPG; SEQ ID NO: 2), P-2 (QGPRGDKGE; SEQ ID NO: 3) or control peptide P-C (QGPSGSPGE (SEQ ID NO: 4)). […]
# Due to the differential expression and bio-distribution of the RGDKGE (SEQ ID NO: 1) epitope in angiogenic CAM tissues and its expression in macrophage-conditioned medium, it was determined whether a soluble circulating form of this RGDKGE (SEQ ID NO: 1) epitope could be generated. […]
# [10] = molecular target: T1, integrin αvβ3 (recombinant) (UniProt P06756 31-992; P05106 27-718); experiment: solid-phase binding assay, integrin on immobilized PGF peptide (100 ug/ml)
# T1 construct: Bought recombinant integrin; also called recombinant integrin receptor αvβ3
# Method: Plates were coated with 25 µg/ml of native or denatured (boiled 15 minutes) collagen. Collagen epitope peptide PGF and Cont-peptides were immobilized at 100 ug/ml. Integrins (0-2.0 µg/ml) were diluted in binding buffer containing 20 mM Tris, 15 mM NaCl, 1 mM MgCl2, 0.2 mM MnCl2, 0.5% BSA pH 7.4 as described (13). Integrins were allowed to bind for 1 hr and plates washed and incubated with anti-integrin antibodies (1:100 dilution) for 1 hr. Plates were washed and incubated with HRP-labeled secondary antibodies (1:5000 dilution). In a second assay, integrins (0.5 µg/ml) were coated in binding buffer and plates were washed, blocked as before and denatured (boiled 15 minutes) collagen was added (0-10.0 µg/ml). Denatured collagen was detected with anti-collagen antibody (1:1000). For integrin blocking ELISAs, wells were coated with denatured collagen and pre-treated (0.1 µg/ml) with anti-HU177 or control antibody. Following washing, wells were incubated with integrins (2.0 µg/ml) and binding was detected as described. Assays were carried out at least 3 times.
# [11] = molecular target: T2, integrin αvβ3 on cells (HUVEC endothelial cells, M21 melanoma cells, human T-cells) (human, UniProt P06756 31-1048; P05106 27-788); experiment: HUVEC adhesion to immobilized peptides with function blocking anti-integrin antibodies
# T2 construct: whole, on cells; Endogenous receptor on the cells used in adhesion and signalling assays; also called β3 integrin
# Method: as §2, with “µg/ml)” for “μg/ml)”, “µg/ml).” for “μg/ml).”
# Example 8: Collagen Peptide P-2 Binds and Activates αvβ3 and Stimulates P38MAPK Activation in a Src Dependent Manner It is well established that multiple integrins recognize RGD amino acid motifs within ECM proteins. However, the ability of an integrin to bind distinct RGD epitopes depends in part on its orientation within the parent molecule and the C-terminal amino acid sequences flanking the RGD motif (25-27). Potential cell surface receptors that mediate interactions with the RGDKGE (SEQ ID NO: 1) containing collagen P-2 peptide were identified. The ability of endothelial cells to bind the RGD collagen peptides P-1 and P-2 in the presence or absence of function blocking anti-integrin antibodies was examined.
# T2 sequence (P06756 31-1048, chain 1 of 2): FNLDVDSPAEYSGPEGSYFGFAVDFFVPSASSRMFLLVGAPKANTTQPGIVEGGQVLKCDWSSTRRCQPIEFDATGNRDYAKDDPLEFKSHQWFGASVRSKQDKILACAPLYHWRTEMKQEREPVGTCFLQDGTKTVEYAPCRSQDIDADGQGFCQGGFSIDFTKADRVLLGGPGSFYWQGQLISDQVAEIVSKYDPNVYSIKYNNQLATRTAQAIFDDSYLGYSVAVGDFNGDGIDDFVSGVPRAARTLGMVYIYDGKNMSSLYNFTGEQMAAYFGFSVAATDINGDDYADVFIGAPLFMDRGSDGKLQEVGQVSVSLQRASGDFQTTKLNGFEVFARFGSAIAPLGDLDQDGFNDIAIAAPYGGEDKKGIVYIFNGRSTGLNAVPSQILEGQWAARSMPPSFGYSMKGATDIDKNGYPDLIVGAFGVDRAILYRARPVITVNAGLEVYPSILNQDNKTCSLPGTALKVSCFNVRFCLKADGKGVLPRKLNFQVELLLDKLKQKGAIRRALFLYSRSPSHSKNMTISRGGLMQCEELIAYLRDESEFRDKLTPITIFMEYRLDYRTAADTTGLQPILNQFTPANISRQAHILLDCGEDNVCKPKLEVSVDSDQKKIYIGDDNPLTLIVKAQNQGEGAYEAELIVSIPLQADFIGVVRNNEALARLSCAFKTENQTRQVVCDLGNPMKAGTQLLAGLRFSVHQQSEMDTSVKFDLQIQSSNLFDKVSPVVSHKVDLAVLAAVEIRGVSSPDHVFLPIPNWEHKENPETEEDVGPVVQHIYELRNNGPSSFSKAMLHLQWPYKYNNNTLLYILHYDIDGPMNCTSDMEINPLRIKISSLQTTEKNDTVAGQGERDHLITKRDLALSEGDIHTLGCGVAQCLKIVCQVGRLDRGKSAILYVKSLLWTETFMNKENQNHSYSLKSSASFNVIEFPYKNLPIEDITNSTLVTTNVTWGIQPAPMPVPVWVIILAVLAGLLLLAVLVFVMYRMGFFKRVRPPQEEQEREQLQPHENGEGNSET
# T2 sequence (P05106 27-788, chain 2 of 2): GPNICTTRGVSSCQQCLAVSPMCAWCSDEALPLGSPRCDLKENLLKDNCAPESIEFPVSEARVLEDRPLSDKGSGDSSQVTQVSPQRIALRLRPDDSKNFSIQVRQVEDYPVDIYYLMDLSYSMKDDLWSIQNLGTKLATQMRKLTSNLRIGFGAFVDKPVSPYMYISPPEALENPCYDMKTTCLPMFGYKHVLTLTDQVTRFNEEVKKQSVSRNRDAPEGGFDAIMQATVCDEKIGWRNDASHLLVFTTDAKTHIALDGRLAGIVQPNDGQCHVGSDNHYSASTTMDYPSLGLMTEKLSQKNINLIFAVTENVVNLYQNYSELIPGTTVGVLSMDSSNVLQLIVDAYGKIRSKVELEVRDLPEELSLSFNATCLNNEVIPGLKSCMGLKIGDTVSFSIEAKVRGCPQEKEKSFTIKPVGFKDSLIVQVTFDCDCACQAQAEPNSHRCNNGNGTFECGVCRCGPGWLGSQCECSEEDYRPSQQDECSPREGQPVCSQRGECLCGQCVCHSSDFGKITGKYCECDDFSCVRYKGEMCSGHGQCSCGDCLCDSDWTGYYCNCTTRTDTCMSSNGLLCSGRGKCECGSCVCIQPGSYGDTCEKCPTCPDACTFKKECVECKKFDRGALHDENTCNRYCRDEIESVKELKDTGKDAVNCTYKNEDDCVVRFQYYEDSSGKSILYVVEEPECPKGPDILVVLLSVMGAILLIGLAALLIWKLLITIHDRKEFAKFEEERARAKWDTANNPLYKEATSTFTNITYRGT
# T1 sequence (P06756 31-992 limits assumed, chain 1 of 2): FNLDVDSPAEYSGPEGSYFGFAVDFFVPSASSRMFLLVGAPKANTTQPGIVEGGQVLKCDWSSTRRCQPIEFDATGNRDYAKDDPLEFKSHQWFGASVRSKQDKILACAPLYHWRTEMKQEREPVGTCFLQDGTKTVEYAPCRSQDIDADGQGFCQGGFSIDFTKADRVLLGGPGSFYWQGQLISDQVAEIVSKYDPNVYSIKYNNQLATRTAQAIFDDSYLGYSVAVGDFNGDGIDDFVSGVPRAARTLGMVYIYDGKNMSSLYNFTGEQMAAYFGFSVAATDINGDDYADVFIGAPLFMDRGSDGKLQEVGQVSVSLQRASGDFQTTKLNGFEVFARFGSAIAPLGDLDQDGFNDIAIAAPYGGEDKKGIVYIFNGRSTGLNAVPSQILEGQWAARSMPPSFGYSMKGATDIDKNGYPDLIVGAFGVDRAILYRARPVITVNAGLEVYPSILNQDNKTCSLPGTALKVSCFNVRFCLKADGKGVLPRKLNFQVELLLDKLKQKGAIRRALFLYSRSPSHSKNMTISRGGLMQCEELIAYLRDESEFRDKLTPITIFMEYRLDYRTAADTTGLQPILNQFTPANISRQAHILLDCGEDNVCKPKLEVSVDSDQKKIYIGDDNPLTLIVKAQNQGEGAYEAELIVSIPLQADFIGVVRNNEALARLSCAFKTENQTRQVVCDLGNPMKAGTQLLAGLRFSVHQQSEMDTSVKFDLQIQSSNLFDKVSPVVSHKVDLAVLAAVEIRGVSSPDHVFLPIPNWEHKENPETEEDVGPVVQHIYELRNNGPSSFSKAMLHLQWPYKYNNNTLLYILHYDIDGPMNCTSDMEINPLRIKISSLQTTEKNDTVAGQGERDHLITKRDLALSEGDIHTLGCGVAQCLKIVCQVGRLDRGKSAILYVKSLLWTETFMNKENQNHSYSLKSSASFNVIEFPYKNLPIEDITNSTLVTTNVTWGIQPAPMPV
# T1 sequence (P05106 27-718 limits assumed, chain 2 of 2): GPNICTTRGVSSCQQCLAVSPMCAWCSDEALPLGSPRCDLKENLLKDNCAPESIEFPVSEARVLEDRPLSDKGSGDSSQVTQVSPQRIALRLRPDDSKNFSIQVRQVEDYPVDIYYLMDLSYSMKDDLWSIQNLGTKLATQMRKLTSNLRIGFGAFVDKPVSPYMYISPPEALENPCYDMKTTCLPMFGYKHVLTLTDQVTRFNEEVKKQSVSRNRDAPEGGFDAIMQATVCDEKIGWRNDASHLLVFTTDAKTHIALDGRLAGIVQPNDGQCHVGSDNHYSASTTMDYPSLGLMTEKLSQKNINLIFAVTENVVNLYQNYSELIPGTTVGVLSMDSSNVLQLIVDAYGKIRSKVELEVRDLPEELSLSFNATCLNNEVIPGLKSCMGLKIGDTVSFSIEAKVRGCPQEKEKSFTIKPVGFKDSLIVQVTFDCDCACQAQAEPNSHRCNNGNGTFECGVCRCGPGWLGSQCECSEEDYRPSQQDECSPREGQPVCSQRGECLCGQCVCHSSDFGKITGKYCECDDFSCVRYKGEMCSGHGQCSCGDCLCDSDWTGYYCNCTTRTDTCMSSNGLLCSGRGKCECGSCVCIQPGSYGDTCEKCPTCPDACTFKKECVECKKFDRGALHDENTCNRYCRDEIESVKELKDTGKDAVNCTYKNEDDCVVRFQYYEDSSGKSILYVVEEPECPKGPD
molecule,measurement,setting,value
"COc1cccc(-c2cc(=O)c3ccccc3o2)c1N [MEK inhibitor (PD98059), PD98059]",FGF-2 stimulated fibroblast migration on denatured collagen,[1],blocked
"CQGPSGAPGEC [P-C, control peptide lacking the RGD tri-peptide motif, reference compound]",induction of CAM angiogenesis as compared to no treatment,[2],not
same,CAM inflammation following stimulation with peptide,[3],Minimal evidence of tissue inflammation
same,human dermal fibroblast adhesion to immobilized peptide,[4],failed to support interactions
same,HRMVEC adhesion to immobilized peptide,[5],failed to support interactions
same,HMVEC adhesion to immobilized peptide,[6],failed to support interactions
same,HUVEC adhesion to immobilized peptide,[7],failed to support adhesion
"FGF-2: Fibroblast growth factor-2 from R&D Systems, used to stimulate CAMs",CAMs showing robust formation of thick granulation tissue,"[8]; FGF-2 stimulation in the absence of cortisone acetate, FIG. 3E",approximately 50%
same,"macrophage infiltration of the CAMs, enhancement as compared to control","[8]; FGF-2 stimulation without cortisone acetate, FIG. 3D",over 2 fold
same,increase in levels of circulating XL313 epitope,[9],2 fold
"CPGFPGFC [Collagen PGF-peptide (CPGFPGFC), synthetic HU177 epitope]",binding result,[10],no binding
CKGDRGDAPGC [Synthetic collagen RGD containing peptide P-1 (CKGDRGDAPGC)],binding result,[11],binds
